From US10016343B2, “Solid stick antiperspirant compositions” (The Procter & Gamble Company, priority 2013, dated 2018)

Assay: Hygroscopicity (equilibrium moisture pick up) of antiperspirant active
Assay type: physicochemical
Details: 86% RH, 20° C., 5 days
Description: One way to evaluate the hygroscopic nature of an antiperspirant active is to determine the equilibrium moisture pick up of the active after 5 days in a controlled relative humidity environment. Specific humidity chambers can be created placing saturated salt solutions in desiccators at a specific temperature. Different salts are used to create different humidities, for example potassium chloride can be used to make an 86% relative humidity (RH) environment at 20° C. In general there is an increase in moisture pick up as humidity is increased for the antiperspirant actives shown, however there are clear differences in slope and amount of moisture pick up at high humidity. Materials with higher slope and larger increases at high humidity (i.e. 86% RH) are considered to be more hygroscopic. The aluminum zirconium trichlorohydrate active (metal to chloride ratio=1.6) from Inventive Example 1 is the least hygroscopic (28% moisture pick up at 86% RH) with the aluminum zirconium tetrachlorohydrate active (metal to chloride ratio=1.2) being substantially more hygroscopic (40% moisture pick up at 86% RH). […] This may explain the substantial difference observed in the amount of sweat measured between Inventive Examples 1 and 2. […]

moisture pick up (hygroscopicity) [%]	Substance
40	aluminum zirconium tetrachlorohydrate
28	aluminum zirconium trichlorohydrate
